Experimental data published in paper PMC6886798, “Expression of myeloid Src-family kinases is associated with poor prognosis in AML and influences Flt3-ITD kinase inhibitor acquired resistance” (PLoS ONE, 2019).
Where two headings read alike, the source gives them in different places.

How the values were obtained:
Hck T338M = biological target: T1, Hck T338M (Homo sapiens, UniProt P08631, T333M); test: Z'-LYTE in vitro kinase assay; assay type: biochemical
T1 construct: Recombinant near-full-length kinases, consisting of the SH2, SH3 and kinase domains plus the negative regulatory tail; made in house; host or cells: E. coli BL21Star (DE3), co-expressed with Csk and PTP1B
T1 sequence (P08631 78-526 T333M limits assumed): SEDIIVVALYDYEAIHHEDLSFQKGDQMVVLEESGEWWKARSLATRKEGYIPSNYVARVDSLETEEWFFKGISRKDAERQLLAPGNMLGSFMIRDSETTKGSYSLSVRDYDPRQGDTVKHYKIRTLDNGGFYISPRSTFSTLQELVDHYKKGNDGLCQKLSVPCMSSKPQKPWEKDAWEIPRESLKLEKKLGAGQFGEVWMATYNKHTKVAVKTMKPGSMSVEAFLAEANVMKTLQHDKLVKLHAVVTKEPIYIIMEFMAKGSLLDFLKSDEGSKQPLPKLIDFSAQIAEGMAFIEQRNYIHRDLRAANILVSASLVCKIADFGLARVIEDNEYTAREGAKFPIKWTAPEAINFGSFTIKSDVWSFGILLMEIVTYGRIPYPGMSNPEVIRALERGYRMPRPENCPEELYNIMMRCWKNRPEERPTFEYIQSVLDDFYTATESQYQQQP

Hck T338F = biological target: T2, Hck T338F (Homo sapiens, UniProt P08631, T333F); test: Z'-LYTE in vitro kinase assay; assay type: biochemical
T2 construct: Recombinant near-full-length kinases, consisting of the SH2, SH3 and kinase domains plus the negative regulatory tail; made in house; host or cells: E. coli BL21Star (DE3), co-expressed with Csk and PTP1B
T2 sequence (P08631 78-526 T333F limits assumed): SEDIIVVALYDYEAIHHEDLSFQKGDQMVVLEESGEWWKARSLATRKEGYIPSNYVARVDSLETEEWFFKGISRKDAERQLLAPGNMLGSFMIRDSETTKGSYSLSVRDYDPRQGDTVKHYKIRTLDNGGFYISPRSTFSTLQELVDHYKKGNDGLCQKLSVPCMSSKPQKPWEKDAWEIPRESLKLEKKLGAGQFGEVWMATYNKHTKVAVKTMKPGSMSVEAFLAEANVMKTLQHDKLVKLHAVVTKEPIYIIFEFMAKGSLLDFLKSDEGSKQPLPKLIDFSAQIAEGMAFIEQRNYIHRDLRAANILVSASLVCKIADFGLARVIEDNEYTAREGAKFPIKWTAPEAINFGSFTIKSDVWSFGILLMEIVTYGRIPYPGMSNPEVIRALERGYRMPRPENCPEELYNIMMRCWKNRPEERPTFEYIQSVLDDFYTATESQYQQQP

Lyn T338M = biological target: T3, Lyn T338M (Homo sapiens, UniProt P07948, T319M); test: Z'-LYTE in vitro kinase assay; assay type: biochemical; conditions: read-out: A-419259 IC50, Fig 5B, ATP at Km, mean ± SE, three independent determinations
T3 construct: Recombinant near-full-length kinases, consisting of the SH2, SH3 and kinase domains plus the negative regulatory tail; made in house; host or cells: E. coli BL21Star (DE3), co-expressed with Csk and PTP1B
T3 sequence (P07948 63-512 T319M limits assumed): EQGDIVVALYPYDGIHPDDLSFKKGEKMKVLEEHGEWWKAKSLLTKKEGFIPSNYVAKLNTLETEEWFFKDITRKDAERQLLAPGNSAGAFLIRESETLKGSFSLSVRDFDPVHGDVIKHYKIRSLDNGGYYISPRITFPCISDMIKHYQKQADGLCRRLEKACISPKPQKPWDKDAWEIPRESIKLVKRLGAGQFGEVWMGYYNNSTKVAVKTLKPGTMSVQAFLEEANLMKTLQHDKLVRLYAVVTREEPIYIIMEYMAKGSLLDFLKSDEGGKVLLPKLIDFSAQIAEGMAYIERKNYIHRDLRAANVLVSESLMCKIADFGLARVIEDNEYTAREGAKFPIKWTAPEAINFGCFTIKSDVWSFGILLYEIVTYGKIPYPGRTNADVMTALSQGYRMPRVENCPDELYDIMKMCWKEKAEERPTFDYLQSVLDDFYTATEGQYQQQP

Lyn T338L = biological target: T4, Lyn T338L (Homo sapiens, UniProt P07948, T319L); test: Z'-LYTE in vitro kinase assay; assay type: biochemical; conditions: read-out: A-419259 IC50, Fig 5B, ATP at Km, mean ± SE, three independent determinations
T4 construct: Recombinant near-full-length kinases, consisting of the SH2, SH3 and kinase domains plus the negative regulatory tail; made in house; host or cells: E. coli BL21Star (DE3), co-expressed with Csk and PTP1B
T4 sequence (P07948 63-512 T319L limits assumed): as the sequence (P07948 63-512 T319M limits assumed) above, with M257L counted along it

Lyn T338F = biological target: T5, Lyn T338F (Homo sapiens, UniProt P07948, T319F); test: Z'-LYTE in vitro kinase assay; assay type: biochemical; conditions: read-out: A-419259 IC50, Fig 5B, ATP at Km, mean ± SE, three independent determinations
T5 construct: Recombinant near-full-length kinases, consisting of the SH2, SH3 and kinase domains plus the negative regulatory tail; made in house; host or cells: E. coli BL21Star (DE3), co-expressed with Csk and PTP1B
T5 sequence (P07948 63-512 T319F limits assumed): as the sequence (P07948 63-512 T319M limits assumed) above, with M257F counted along it

[1] = system: parental TF-1 cells (GM-CSF); test: CellTiter-Blue cell viability; assay type: cell-based, human; conditions: at 3.0 μM; 72 hours; in the presence of GM-CSF
Experimental: TF-1 and MV4-11 cells were obtained from the American Type Culture Collection (ATCC) and cultured in RPMI 1640 medium supplemented with 10% fetal bovine serum (FBS), 100 units/ml of penicillin, 100 μg/ml of streptomycin sulfate, and 0.25 μg/ml of amphotericin B (Antibiotic-Antimycotic; Gibco/ThermoFisher). Parental TF-1 cells also require recombinant human GM-CSF (1 ng/mL; ThermoFisher). MOLM13 and MOLM14 cells were obtained from Leibniz Institute Deutsche Sammlung von Mikroorganismen (DSMZ) and grown in RPMI 1640 medium containing 20% FBS and Antibiotic-Antimycotic. Human 293T cells were obtained from ATCC and cultured in Dulbecco's modified Eagle's medium (DMEM) containing 10% FBS and Antibiotic-Antimycotic.
(§1) Cells were seeded at 10^5 per mL in the presence or absence of inhibitors with DMSO as carrier solvent (0.1% final). Cell viability was assessed using the CellTiter-Blue reagent according to the manufacturer’s instructions (Promega). Fluorescence intensity, which correlates directly with viable cell number, was measured using a SpectraMax M5 microplate reader. Each experiment included three technical replicates per condition, and each experiment was repeated at least three times.

[2] = system: TF-1/Flt3-ITD + Hck cells; test: CellTiter-Blue cell viability; assay type: cell-based, human; conditions: Fig 3; Flt3-ITD: WT; SFK: Hck; 72 hours; read-out: IC50, nM (growth inhibition)
Experimental: (§2) Full-length cDNA clones of each kinase were subcloned into the retroviral expression vectors pMSCV-neo or pMSCV-puro (Clontech). High-titer retroviral stocks were produced in 293T cells co-transfected with each pMSCV construct and an amphotropic packaging vector. TF-1 cells (10^6) were resuspended in 5.0 mL of undiluted viral supernatant and centrifuged at 1,000 × g for 4 h at 18 °C in the presence of 4 μg/mL Polybrene (Sigma-Aldrich) to enhance viral transduction. Forty-eight hours after infection, the cells began a two-week selection period with 400 μg/ml G-418 (neo vectors) or 3 μg/mL puromycin (puro vectors). Following selection, cells were maintained with 200 μg/ml G418 or 1 μg/mL puromycin. For double transduction experiments, TF-1 cells were first infected with the pMSCV-neo-Flt3-ITD virus, selected with G418, followed by the pMSCV-puro virus carrying Hck or Fgr and puromycin selection. All TF-1 cell populations that expressed Flt3-ITD (including inhibitor-resistant mutants) proliferated in a GM-CSF-independent manner, and were therefore subcultured in the absence of GM-CSF.
as §1

[3] = system: TF-1/Flt3-ITD D835Y + Hck cells; test: CellTiter-Blue cell viability; assay type: cell-based, human; conditions: Fig 3, SFK: Hck, 72 hours, read-out: IC50, nM (growth inhibition)
Experimental: as §2, §1

[4] = system: TF-1/Flt3-ITD N676S cells; test: CellTiter-Blue cell viability; assay type: cell-based, human
Experimental: as §2, §1

TF-1/Flt3-ITD cells = test: CellTiter-Blue cell viability; assay type: cell-based, human; conditions: 72 hours
Experimental: as §2, §1

[5] = system: MOLM13 R3 (A-419259-resistant population); test: CellTiter-Blue cell viability; assay type: cell-based, human
Experimental: as §1, with “Cell” for “Cells were seeded at 10^5 per mL in the presence or absence of inhibitors with DMSO as carrier solvent (0.1% final). Cell”, “times. […] Viability of each cell population was measured three times per week using the CellTiter-Blue assay.” for “times.”

[6] = system: MOLM14 R1 (A-419259-resistant population); test: CellTiter-Blue cell viability; assay type: cell-based, human
Experimental: as §1, with “Cell” for “Cells were seeded at 10^5 per mL in the presence or absence of inhibitors with DMSO as carrier solvent (0.1% final). Cell”, “times. […] Viability of each cell population was measured three times per week using the CellTiter-Blue assay.” for “times.”

[7] = system: MOLM14 R2 (A-419259-resistant population); test: CellTiter-Blue cell viability; assay type: cell-based, human
Experimental: as §1, with “Cell” for “Cells were seeded at 10^5 per mL in the presence or absence of inhibitors with DMSO as carrier solvent (0.1% final). Cell”, “times. […] Viability of each cell population was measured three times per week using the CellTiter-Blue assay.” for “times.”

[8] = system: MOLM14 R3 (A-419259-resistant population); test: CellTiter-Blue cell viability; assay type: cell-based, human
Experimental: as §1, with “Cell” for “Cells were seeded at 10^5 per mL in the presence or absence of inhibitors with DMSO as carrier solvent (0.1% final). Cell”, “times. […] Viability of each cell population was measured three times per week using the CellTiter-Blue assay.” for “times.”

[9] = system: MV4-11 R2 (A-419259-resistant population); test: CellTiter-Blue cell viability; assay type: cell-based, human
Experimental: as §1, with “Cell” for “Cells were seeded at 10^5 per mL in the presence or absence of inhibitors with DMSO as carrier solvent (0.1% final). Cell”, “times. […] Viability of each cell population was measured three times per week using the CellTiter-Blue assay.” for “times.”

[10] = system: MV4-11 R3 (A-419259-resistant population); test: CellTiter-Blue cell viability; assay type: cell-based, human
Experimental: as §1, with “Cell” for “Cells were seeded at 10^5 per mL in the presence or absence of inhibitors with DMSO as carrier solvent (0.1% final). Cell”, “times. […] Viability of each cell population was measured three times per week using the CellTiter-Blue assay.” for “times.”

FLT3(ITD,D835V) = test: KINOMEscan; assay type: binding, human; conditions: 1.0 µM
Experimental: Kinase retention to the immobilized ligand is then measured using quantitative real-time PCR for each kinase-specific DNA barcode.

LCK = biological target: T6, LCK (Homo sapiens, UniProt P06239); test: KINOMEscan; assay type: binding; conditions: 1.0 µM
T6 construct: purchased Eurofins/DiscoverX KINOMEscan scanMAX
T6 sequence (P06239 whole entry): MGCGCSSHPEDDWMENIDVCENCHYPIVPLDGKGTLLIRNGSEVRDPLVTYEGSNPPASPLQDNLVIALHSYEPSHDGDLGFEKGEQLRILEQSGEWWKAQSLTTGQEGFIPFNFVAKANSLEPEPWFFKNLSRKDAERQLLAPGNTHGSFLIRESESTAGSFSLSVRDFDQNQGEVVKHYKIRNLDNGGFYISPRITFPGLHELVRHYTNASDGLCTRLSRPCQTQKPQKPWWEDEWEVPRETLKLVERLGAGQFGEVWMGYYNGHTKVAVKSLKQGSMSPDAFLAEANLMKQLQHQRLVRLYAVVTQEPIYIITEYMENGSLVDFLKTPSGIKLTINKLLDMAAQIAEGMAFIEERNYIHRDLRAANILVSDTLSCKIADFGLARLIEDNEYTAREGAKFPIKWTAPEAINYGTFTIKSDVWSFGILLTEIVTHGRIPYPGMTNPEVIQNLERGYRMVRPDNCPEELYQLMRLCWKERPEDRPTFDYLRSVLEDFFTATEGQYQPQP

PRP4 = biological target: T7, PRP4 (Homo sapiens, UniProt Q13523); test: KINOMEscan; assay type: binding; conditions: 1.0 µM
T7 construct: purchased Eurofins/DiscoverX KINOMEscan scanMAX
T7 sequence (Q13523 whole entry): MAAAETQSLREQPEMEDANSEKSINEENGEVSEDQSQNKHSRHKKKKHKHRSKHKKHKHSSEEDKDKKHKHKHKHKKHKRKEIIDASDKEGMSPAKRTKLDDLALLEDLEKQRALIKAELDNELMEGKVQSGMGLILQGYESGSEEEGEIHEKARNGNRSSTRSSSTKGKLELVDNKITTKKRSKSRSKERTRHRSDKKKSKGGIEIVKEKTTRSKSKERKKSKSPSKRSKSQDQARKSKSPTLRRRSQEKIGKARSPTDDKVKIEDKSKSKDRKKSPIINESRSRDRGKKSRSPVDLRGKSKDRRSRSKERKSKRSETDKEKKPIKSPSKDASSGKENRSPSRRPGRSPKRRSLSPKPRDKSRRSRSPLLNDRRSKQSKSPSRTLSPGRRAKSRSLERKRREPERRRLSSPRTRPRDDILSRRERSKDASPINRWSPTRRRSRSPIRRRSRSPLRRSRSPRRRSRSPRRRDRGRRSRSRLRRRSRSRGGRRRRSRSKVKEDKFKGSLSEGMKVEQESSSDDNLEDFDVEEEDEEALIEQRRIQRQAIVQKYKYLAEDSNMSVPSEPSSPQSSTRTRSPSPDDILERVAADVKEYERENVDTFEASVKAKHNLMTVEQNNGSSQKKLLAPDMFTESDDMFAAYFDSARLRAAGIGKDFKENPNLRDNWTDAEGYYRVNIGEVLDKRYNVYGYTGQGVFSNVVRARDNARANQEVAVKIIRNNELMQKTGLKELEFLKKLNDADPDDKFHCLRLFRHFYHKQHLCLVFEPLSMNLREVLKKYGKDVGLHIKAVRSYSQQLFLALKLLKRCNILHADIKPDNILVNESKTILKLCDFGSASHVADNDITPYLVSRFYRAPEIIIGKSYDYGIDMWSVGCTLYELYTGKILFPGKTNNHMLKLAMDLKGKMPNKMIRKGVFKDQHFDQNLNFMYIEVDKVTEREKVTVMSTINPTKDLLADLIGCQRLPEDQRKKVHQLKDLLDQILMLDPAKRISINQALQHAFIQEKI

[11] = read-out: A-419259 Sensitivity (IC50, nM) Initial, mean ± SE (n = 3)
[12] = read-out: A-419259 Sensitivity (IC50, nM) Post-holiday, after 4 weeks passage in the absence of inhibitor, mean ± SE (n = 3)

For `CN1CCN(C2CCC(n3cc(-c4ccc(Oc5ccccc5)cc4)c4c(N)ncnc43)CC2)CC1` (centres unmarked) [A-419259], which “reduction of kinase sensitivity to A-419259” value (Hck T338M; Hck gatekeeper threonine to methionine, vs wild-type) is on record?
Its value is 2 fold.

What about the IC50 (Hck T338M; read-out: A-419259 IC50, Fig 5B, Hck T338M, ATP at Km, mean ± SE, three independent determinations) of the same molecule?
Its IC50 is 0.0949 ± 0.0011 µM.

And the “reduction of kinase sensitivity to A-419259” value (Hck T338F; Hck gatekeeper threonine to phenylalanine, vs wild-type)?
Its value is ~5 fold.

And the IC50 (Hck T338F; read-out: A-419259 IC50, Fig 5B, Hck T338F, ATP at Km, mean ± SE, three independent determinations)?
Its IC50 is 0.201 ± 0.001 µM.

And the IC50 (Lyn T338M)?
The IC50 was 0.1278 ± 0.001 µM.

And the IC50 (Lyn T338L)?
The IC50 was 0.1297 ± 0.0011 µM.

What about the IC50 (Lyn T338F) of the same molecule?
Its IC50 is 0.242 ± 0.0012 µM.

What about the growth inhibition [1] of the same molecule?
Its growth inhibition is “less than 20%”.

And the IC50 [2]?
The IC50 was 15.4 nM.

And the IC50 [3]?
The IC50 was > 100 nM.

And the IC50 ([4]; Fig 9A, 72 hours, read-out: IC50 (growth arrest))?
The IC50 was 0.176 µM.

What about the IC50 ([4]; S9 Fig, N676S control, 48 h, read-out: IC50 (cell viability)) of the same molecule?
The IC50 was 0.0891 µM.

What about the IC50 (TF-1/Flt3-ITD cells; Fig 3, Flt3-ITD: WT, SFK: none, read-out: IC50, nM (growth inhibition)) of the same molecule?
The IC50 was 18.2 nM.

What about the IC50 (TF-1/Flt3-ITD cells; Fig 9A, control TF-1/Flt3-ITD cells, read-out: IC50 (growth arrest)) of the same molecule?
Its IC50 is 26 nM.

And the IC50 [5, 11]?
The IC50 was 473 ± 53.9 nM.

And the IC50 [5, 12]?
Its IC50 is 436 ± 107 nM.

What about the IC50 [6, 11] of the same molecule?
The IC50 was 187 ± 20.8 nM.

What about the IC50 [6, 12] of the same molecule?
Its IC50 is 283 ± 84.2 nM.

What about the IC50 [7, 11] of the same molecule?
Its IC50 is 193 ± 51.4 nM.

What about the IC50 [7, 12] of the same molecule?
The IC50 was 326 ± 38.4 nM.

And the IC50 [8, 11]?
Its IC50 is 213 ± 73.7 nM.

What about the IC50 [8, 12] of the same molecule?
The IC50 was 178 ± 46.1 nM.

And the IC50 [9, 11]?
The IC50 was 410 ± 136 nM.

And the IC50 [9, 12]?
The IC50 was 597 ± 76.3 nM.

What about the IC50 [10, 11] of the same molecule?
Its IC50 is 125 ± 7.3 nM.

What about the IC50 [10, 12] of the same molecule?
Its IC50 is 91.6 ± 15.6 nM.

And the “% Control” value (FLT3(ITD,D835V))?
Its value is 30%.

What about the “% Control” value (LCK) of the same molecule?
The value was 2.3%.

And the “% Control” value (PRP4)?
The value was 98%.
